Test results taken from ChEMBL document CHEMBL3046154, “Synthesis and biological activity of 2-(4,5-dihydroisoxazol-5-yl)-1,3,4-oxadiazoles” (2009).

Key:
Format in all cases: functional
Design in all cases: concentration or dose not given beside the values
Zymoseptoria tritici = experiment: Antifungal activity against Zymoseptoria tritici assessed as disease control
Pyricularia oryzae = experiment: Antifungal activity against Magnaporthe oryzae assessed as disease control
Spodoptera exigua = experiment: Insecticidal activity against Spodoptera exigua assessed as mortality

| Compound | Activity (Zymoseptoria tritici) [%] | Activity (Pyricularia oryzae) [%] | Activity (Spodoptera exigua) [%] |
| --- | --- | --- | --- |
| CC1(c2nnc(-c3ccc(Cl)cc3)o2)CC(c2ccncc2)=NO1 (stereo not drawn) | 70 | 30 | 0 |
| CC1(c2nnc(-c3ccc(Cl)cc3)o2)CC(c2ccc(Cl)cc2)=NO1 (stereo not drawn) | 0 | 50 | 17 |
| CC1(c2nnc(Cc3ccccc3)o2)CC(c2ccc([N+](=O)[O-])cc2)=NO1 (stereo not drawn) | 30 | 30 | 17 |
| Clc1cccc(C2=NOC(c3nnc(-c4ccccc4)o3)C2)c1 (stereo not drawn) | 0 | 30 | 0 |
| Clc1cccc(Cl)c1C1=NOC(c2nnc(-c3ccccc3)o2)C1 (stereo not drawn) | 30 | 40 | 17 |
| Fc1ccc(C2=NOC(c3nnc(-c4ccccc4)o3)C2)cc1 (stereo not drawn) | 0 | 30 | 17 |
| CC1(c2nnc(-c3ccc(Cl)cc3)o2)CC(c2cccc(Cl)c2)=NO1 (stereo not drawn) | 10 | 50 | 50 |
| CC1(c2nnc(-c3cccc(Cl)c3)o2)CC(c2cccc(Cl)c2)=NO1 (stereo not drawn) | 0 | 30 | 33 |
| c1ccc(-c2nnc(C3CC(c4ccncc4)=NO3)o2)cc1 (stereo not drawn) | 0 | 0 | 0 |
| CC1(c2nnc(-c3cccc(Cl)c3)o2)CC(c2ccccc2)=NO1 (stereo not drawn) | 10 | 40 | 17 |
| CC1(c2nnc(-c3ccc(Cl)cc3)o2)CC(c2ccc([N+](=O)[O-])cc2)=NO1 (stereo not drawn) | 40 | 30 | 0 |
| CC1(c2nnc(-c3cccc(Cl)c3)o2)CC(c2ccc(Cl)cc2)=NO1 (stereo not drawn) | 0 | 40 | 50 |
| Clc1ccc(C2=NOC(c3nnc(-c4ccccc4)o3)C2)cc1 (stereo not drawn) | 0 | 0 | 17 |
| CC1(c2nnc(Cc3ccccc3)o2)CC(c2c(Cl)cccc2Cl)=NO1 (stereo not drawn) | 0 | 0 | 0 |
| CC1(c2nnc(-c3cccc(Cl)c3)o2)CC(c2ccc(F)cc2)=NO1 (stereo not drawn) | 10 | 50 | 0 |
| CC1(c2nnc(-c3cccc(Cl)c3)o2)CC(c2c(Cl)cccc2Cl)=NO1 (stereo not drawn) | 0 | 50 | 50 |
